The text below walks through data of ChEMBL document CHEMBL1201862, “PubChem BioAssay data set” (2004).

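Five concentrations, 48 hours, 96-well plates. Here, GI50 denotes the concentration required for 50% inhibition of growth.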 Active and inactive are the calls of the source. Cut-off read from the data, not from the text of the source: active = GI50 up to about 1.1 µM and inactive = higher.

Among the test systems are NCI-H23; IGROV-1; ACHN; SW-620; K562; TK-10; HCT-15; HL-60; OVCAR-4; MDA-N; PC-3; MDA-MB-435; UACC-62; EKVX; SR; OVCAR-3; A498; OVCAR-5; UO-31; SK-MEL-2.
Experiment in all cases: inhibition of tumour cell growth, NCI panel, 48 h

On to `COc1cc2oc(=O)cc(C)c2cc1[N+](=O)[O-]`, for which the GI50 in the test with NCI-H23 is 21.3 µM (inactive); in the test on IGROV-1 it was 38.9 µM (inactive); in the test on ACHN, 28.1 µM (inactive); with SW-620 it was 23 µM (inactive); with K562, 22.4 µM (inactive); in the test with TK-10 it was 35.7 µM (inactive). In addition, the GI50 in the test on HCT-15 is 17.7 µM; in the test on HL-60, 8.87 µM (inactive); with OVCAR-4, 35.1 µM (inactive); with MDA-N it was 14.7 µM (inactive); with PC-3 it was 27.9 µM (inactive); with MDA-MB-435 it was 20.1 µM (inactive). For the same compound, the GI50 with UACC-62 was 16.1 µM (inactive); in the test on EKVX it was > 59.4 µM (inactive); in the test with SR, 13 µM (inactive); in the test on OVCAR-3, 25.4 µM (inactive); in the test on A498, 28.4 µM (inactive); in the test on OVCAR-5, 28.1 µM (inactive). The GI50 was 34.4 µM (inactive) with UO-31 and 12.4 µM (inactive) with SK-MEL-2.

On to `O=C(O)c1cccc(S(=O)(=O)NN2C(=O)CSC2c2c(O)ccc3ccccc23)c1` (stereo not drawn), for which the GI50 is 21.7 µM (inactive) in the test with NCI-H23; 18 µM (inactive) in the test with IGROV-1; 34.1 µM (inactive) with ACHN; 21.1 µM (inactive) in the test on SW-620; 31.3 µM (inactive) in the test on K562; > 100 µM (inactive) in the test with TK-10. Besides, the GI50 in the test on HCT-15 was 42.5 µM; with HL-60, 28 µM (inactive); in the test on OVCAR-4, 28.9 µM (inactive); in the test with MDA-N, 37.8 µM (inactive); in the test with PC-3, 33 µM (inactive); in the test on MDA-MB-435, 37.6 µM (inactive). Further, the GI50 with UACC-62 is 27 µM (inactive); with EKVX it was 45.8 µM (inactive); with SR, 24.9 µM (inactive); in the test on OVCAR-3, 20.6 µM (inactive); with A498, 24.5 µM (inactive); in the test on OVCAR-5 it was 79.3 µM (inactive). The GI50 is 33.4 µM (inactive) in the test with UO-31 and 33.5 µM (inactive) with SK-MEL-2.

With `Cc1cc(S(=O)(=O)Nc2nc3ccccc3nc2-c2ccc(Cl)cc2)c(S)cc1Cl`, the GI50 in the test on NCI-H23 was 18.5 µM (inactive); in the test on IGROV-1 it was 12.4 µM (inactive); in the test with ACHN it was 16.7 µM (inactive); with K562, 19.9 µM (inactive); in the test on TK-10 it was 28.6 µM (inactive); in the test with HCT-15, 20.1 µM. Besides, the GI50 in the test on HL-60 was 21.6 µM (inactive); in the test on OVCAR-4, 14.6 µM (inactive); in the test on MDA-N it was 18 µM (inactive); with PC-3, 17.1 µM (inactive); in the test on MDA-MB-435 it was 17.3 µM (inactive); in the test on UACC-62, 12.2 µM (inactive). Besides, the GI50 in the test with EKVX was 15.7 µM (inactive); with SR, 17.3 µM (inactive); with OVCAR-3, 16.3 µM (inactive); in the test on A498, 16.3 µM (inactive); in the test with OVCAR-5, 19.6 µM (inactive); in the test with UO-31, 15.9 µM (inactive). Besides, the GI50 in the test on SK-MEL-2 was 13.7 µM (inactive).

For the compound `CN(C)/C=N\c1cccc2cnccc12`, the GI50 is > 100 µM (inactive) in the test on NCI-H23; > 100 µM (inactive) in the test on IGROV-1; > 100 µM (inactive) in the test with ACHN; > 100 µM (inactive) with K562; > 100 µM (inactive) with TK-10; more than 100 µM in the test with HCT-15. Also, the GI50 with HL-60, in the test on OVCAR-4, in the test on MDA-N, in the test on PC-3, with MDA-MB-435 and in the test with UACC-62 was > 100 µM (inactive) throughout. Besides, the GI50 in the test on EKVX was > 100 µM (inactive); in the test on SR, > 100 µM (inactive); in the test on OVCAR-3 it was 43.2 µM (inactive); in the test on A498, > 100 µM (inactive); with OVCAR-5, > 100 µM (inactive); with UO-31, > 100 µM (inactive). The GI50 in the test with SK-MEL-2 is > 100 µM (inactive).
